Tests used:
Human TASK-1 channels = Human TASK-1 channels (UniProt O35111); assay: Activity on the TASK-1 channel: two-microelectrode voltage clamp on Xenopus oocytes expressing TASK-1; type: cell-based; details: TASK-1 expressed in Xenopus oocytes, room temperature, Hill equation; read-out: mTask-1 IC-50
Human Kv1.5 channels = target: T1, Human Kv1.5 channels (Homo sapiens, UniProt P22460); assay: Activity on the Kv1.5 channel: two-microelectrode voltage clamp on Xenopus oocytes expressing Kv1.5; type: cell-based; details: human Kv1.5 expressed in Xenopus oocytes, room temperature, Hill equation; read-out: Kv1.5 IC-50
T1 construct: expressed in transfected cells; host or cells: Xenopus laevis oocytes injected with RNA synthesized in vitro
T1 sequence (P22460 whole entry): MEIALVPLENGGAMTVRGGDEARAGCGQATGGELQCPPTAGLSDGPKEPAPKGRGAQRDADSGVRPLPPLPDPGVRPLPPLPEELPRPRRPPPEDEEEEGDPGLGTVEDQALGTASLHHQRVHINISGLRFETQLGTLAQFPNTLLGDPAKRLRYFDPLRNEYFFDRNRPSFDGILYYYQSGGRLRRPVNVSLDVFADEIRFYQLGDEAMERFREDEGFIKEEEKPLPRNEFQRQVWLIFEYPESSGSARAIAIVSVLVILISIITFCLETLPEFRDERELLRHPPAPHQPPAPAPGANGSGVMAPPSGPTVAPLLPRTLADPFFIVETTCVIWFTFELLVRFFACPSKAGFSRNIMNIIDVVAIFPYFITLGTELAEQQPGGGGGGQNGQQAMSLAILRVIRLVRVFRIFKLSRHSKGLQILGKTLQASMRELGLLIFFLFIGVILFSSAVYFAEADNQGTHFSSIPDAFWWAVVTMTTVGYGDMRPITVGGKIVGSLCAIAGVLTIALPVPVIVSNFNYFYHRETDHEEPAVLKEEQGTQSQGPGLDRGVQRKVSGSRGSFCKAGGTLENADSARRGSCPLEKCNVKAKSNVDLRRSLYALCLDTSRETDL
Experimental: Determination of the Activity on the Kv1.5 Channel
Human Kv1.5 channels were expressed in xenopus oocytes. For this purpose, firstly oocytes were isolated from Xenopus laevis and defolliculated. Kv1.5-encoding RNA synthesized in vitro was then injected into these oocytes. After Kv1.5 protein expression for 1-7 days, Kv1.5 currents were measured on the oocytes using the two-microelectrode voltage clamp technique. The Kv1.5 channels were in this case usually activated with voltage jumps lasting 500 ms to 0 mV and 40 mV. A solution of the following composition flowed through the bath: NaCl 96 mM, KCl 2 mM, CaCl2 1.8 mM, MgCl2 1 mM, HEPES 5 mM (titrated to pH 7.4 with NaOH). These experiments were carried out at room temperature. The following were employed for data acquisition and analysis: Geneclamp amplifier (Axon Instruments, Foster City, USA) and MacLab D/A converter and software (ADInstruments, Castle Hill, Australia). The substances of the invention were tested by adding them in various concentrations to the bath solution. The effects of the substances were calculated as percent inhibition of the Kv1.5 control current which was obtained when no substance was added to the solution. The data were then extrapolated using the Hill equation in order to determine the inhibitory concentrations IC50 for the respective substances.

Compound | IC50 (Human TASK-1 channels) | IC50 (Human Kv1.5 channels)
N#Cc1ccc(O[C@H](c2ccc(F)c(F)c2)[C@H](c2ccc(F)cc2)N2CCCC2=O)cc1 (racemic) [Example 4, 4-[(1R′,2S′)-1-(3,4-Difluorophenyl)-2-(4-fluorophenyl)-2-(2-oxopyrrolidin-1-yl)ethoxy]benzonitrile] | 2300 nM | 3900 nM
CO[C@H](c1ccc(Cl)cc1)[C@H](c1ccccc1)N1CCCC1=O (racemic) [Example 46] | 5400 nM | 1500 nM
CO[C@@H](c1ccccc1)[C@H](c1ccccc1)N1CCCC1=O (racemic) [Example 82] | – | 3700 nM
O=C1CCCN1[C@@H](c1ccc(F)cc1)[C@@H](OCC1CC1)c1cccc2cccnc12 (racemic) [Example 75] | – | 1400 nM
N#Cc1ccc(OC(c2ccc(C#N)cc2)C(c2ccc(F)cc2)N2CCCC2=O)cc1 (stereo not drawn) [Example 113] | – | ~10000 nM
CO[C@H](c1ccc(F)cc1)[C@H](c1ccc(F)cc1)N1CCCC1=O (racemic) [Example 79] | – | 3400 nM
O=C1CCCN1[C@@H](c1cccnc1)[C@H](OCCCC(F)(F)F)c1ccc(F)cc1 (racemic) [Example 65] | – | 1500 nM
CO[C@H](c1ccc(F)c(F)c1)[C@H](c1ccc(F)cc1)N1CCCC1=O (racemic) [Example 87] | – | 4200 nM
CC#CCO[C@H](c1ccc(F)c(F)c1)[C@H](c1ccc(F)cc1)N1CCCC1=O (racemic) [Example 62] | – | 2400 nM
COc1ccc(CO[C@H](c2ccc(F)cc2)[C@@H](c2ccc(F)cc2)N2CCCC2=O)cc1 (racemic) [Example 94] | – | 5300 nM
CS(=O)(=O)c1ccc([C@@H](OCC2CC2)[C@H](c2ccc(F)cc2)N2CCCC2=O)cc1 (racemic) [Example 61] | – | 1800 nM
CC(OCC1CC1)(c1ccccc1)C(c1ccccc1)N1CCCC1=O (stereo not drawn) [Example 8, 1-(2-Cyclopropylmethoxy-1,2-diphenylpropyl)pyrrolidin-2-one] | – | 1200 nM
O=C1CCCN1[C@@H](c1cccnc1)[C@H](OCc1ccc(Cl)cc1)c1ccc(F)c(F)c1 (racemic) [Example 100] | – | 5400 nM
N#Cc1ccc(O[C@@H](c2ccnc3ccccc23)[C@H](c2ccc(F)cc2)N2CCCC2=O)cc1 (racemic) [Example 109] | – | 9600 nM
COc1ccc(CO[C@H](c2ccc(F)cc2)[C@@H](c2ccccc2)N2CCCC2=O)cc1 (racemic) [Example 95] | – | 5200 nM
O=C1CCCN1[C@@H](c1ccc(F)cc1)[C@H](OCCCC(F)(F)F)c1cccnc1 (racemic) [Example 2, 1-[(1R′,2S′)-1-(4-Fluorophenyl)-2-pyridin-3-yl-2-(4,4,4-trifluorobutoxy)-ethyl]pyrrolidin-2-one] | – | 6000 nM
N#Cc1ccc(O[C@H](c2ccc(F)c(F)c2)[C@H](c2ccc(F)cc2)N2CCCS2(=O)=O)cc1 (racemic) [Example 112] | – | ~10000 nM
N#Cc1ccc(O[C@H](c2ccc(F)c(F)c2)[C@@H](c2ccc(F)cc2)N2CCCC2=O)cc1 (racemic) [Example 102] | – | 5400 nM
COc1ccc(CO[C@H](c2ccc(F)cc2)[C@H](c2cccc3cccnc23)N2CCCC2=O)cc1 (racemic) [Example 98] | – | 5500 nM
O=C1CCCN1[C@@H](c1ccc(F)cc1)[C@H](OCC1CC1)C1CCCCC1 (racemic) [Example 83] | – | 1800 nM

Compound | IC50 (Human TASK-1 channels) | IC50 (Human Kv1.5 channels)
N#Cc1ccc(O[C@@H](c2cccc3ccccc23)[C@H](c2ccc(F)cc2)N2CCCC2=O)cc1 (racemic) [Example 89] | – | 3500 nM
CC1CCC(=O)N1[C@@H](c1ccc(F)cc1)[C@H](Oc1ccc(C#N)cc1)c1ccc(F)c(F)c1 (mixture of isomers) [Example 90] | – | 4100 nM
CCCO[C@H](c1ccccc1)[C@@H](c1ccccn1)N1CCCC1=O (racemic) [Example 64] | – | 1830 nM
C#CCO[C@H](c1ccc(F)c(F)c1)[C@H](c1ccc(F)cc1)N1C(=O)CCC1C (mixture of isomers) [Example 26] | – | 1000 nM
O=C1CCCN1[C@@H](c1ccc(F)cc1)[C@@H](OCC1CC1)c1ccnc2ccccc12 (racemic) [Example 84] | – | 2400 nM
N#Cc1ccc(O[C@H](c2ccc(OC(F)(F)F)cc2)[C@H](c2ccc(F)cc2)N2CCCC2=O)cc1 (racemic) [Example 108] | – | 9000 nM
COc1ccc(CO[C@H](c2ccc(F)c(F)c2)[C@H](c2ccc(F)cc2)N2CCCC2=O)cc1 (racemic) [Example 48] | – | 2100 nM
COc1ccc([C@@H](OCC2CC2)[C@H](c2ccc(F)cc2)N2CCCC2=O)cc1 (racemic) [Example 73] | – | 1000 nM
COc1ccc(CO[C@H](c2ccc(Cl)cc2)[C@H](c2ccccc2)N2CCCC2=O)cc1 (racemic) [Example 60] | – | 1300 nM
O=C1CCCN1[C@@H](c1ccc(F)cc1)[C@H](OCC1CC1)c1cccnc1 (racemic) [Example 58] | – | 1000 nM
C[C@@](c1ccccc1)([C@H](OCC1CC1)c1ccccc1)N1CCCC1=O (racemic) [Example 31] | – | 1400 nM
O=S1(=O)CCCN1[C@H](c1ccccc1)[C@@H](OCC1CC1)c1ccccc1 [Example 52] | – | 2000 nM
O=C1CCCCN1[C@H](c1ccccc1)[C@@H](OCC1CC1)c1ccccc1 [Example 74] | – | 1400 nM
O=C1CCCN1[C@@H](c1ccc(F)cc1)[C@H](OCC1CC1)c1ccc(C(F)(F)F)cc1 (racemic) [Example 80] | – | 1400 nM
N#Cc1ccc([C@@H](OCC2CC2)[C@H](c2ccc(F)cc2)N2CCCC2=O)cc1 (racemic) [Example 41] | – | 1000 nM
N#Cc1ccc(O[C@H](c2cccnc2)[C@H](c2cccc3cccnc23)N2CCCC2=O)cc1 (racemic) [Example 66] | – | 2300 nM
O=C1CCCN1[C@@H](c1ccccn1)[C@H](OCC1CC1)c1ccccc1 (racemic) [Example 5, 1-[(1R′,2S′)-2-Cyclopropylmethoxy-2-phenyl-1-pyridin-2-ylethyl]pyrrolidin-2-one] | – | 1300 nM
C#CCO[C@H](c1ccc(F)c(F)c1)[C@H](c1ccc(F)cc1)N1CCCCC1=O (racemic) [Example 30] | – | 1100 nM
O=C1CCCN1[C@@H](c1ccc(F)cc1)[C@H](OCCCC(F)(F)F)c1ccc(F)c(F)c1 (racemic) [Example 34] | – | 1000 nM
O=C1CCCN1[C@@H](c1ccccc1)[C@H](Oc1ccccn1)c1ccccc1 (racemic) [Example 70] | – | 2300 nM

The next molecules have a lower IC50 (Human Kv1.5 channels) than those just listed; values first:

IC50 (Human TASK-1 channels) | IC50 (Human Kv1.5 channels) | Compound
– | 600 nM | CCCO[C@H](c1ccc(C#N)cc1)[C@H](c1ccc(F)cc1)N1CCCC1=O (racemic) [Example 36]
– | 800 nM | CCCCO[C@H](c1ccc(Cl)cc1)[C@H](c1ccccc1)N1CCCC1=O (racemic) [Example 56]
– | 800 nM | O=C1CCCN1[C@@H](c1cccc2cccnc12)[C@H](OCC1CC1)c1cccnc1 (racemic) [Example 119]
– | 330 nM | O=C1CCCCN1[C@@H](c1ccc(F)cc1)[C@H](OCC1CC1)c1ccc(F)c(F)c1 (racemic) [Example 14]
– | 500 nM | CC1CCC(=O)N1[C@@H](c1ccc(F)cc1)[C@H](OCC1CC1)c1ccc(F)c(F)c1 (mixture of isomers) [Example 35]
– | 650 nM | CCCOC(c1ccc(OC)cc1)C(c1ccccc1)N1CCCC1=O (stereo not drawn) [Example 23]
– | 600 nM | O=C1CCCN1[C@@H](c1ccccc1)[C@H](OC1CC1)c1ccccc1 (racemic) [Example 32, 1S,2R-1-(Cyclopropoxy-1,2-diphenylethyl)pyrrolidin-2-one]
– | 800 nM | O=C1CCCN1[C@@H](c1ccccc1)[C@H](OCc1cccc(Cl)c1)c1ccc(Cl)cc1 (racemic) [Example 40]
– | 800 nM | O=C1CCCN1[C@@H](c1cccnc1)[C@H](OCC1CC1)c1ccc(F)cc1 (racemic) [Example 16]
– | 600 nM | O=C1CCCN1[C@@H](c1ccc(F)cc1)[C@H](OCC1CC1)c1ccc(F)c(F)c1 (racemic) [Example 42]
– | 900 nM | CCCO[C@@H](c1ccc(Cl)cc1)[C@H](c1ccccc1)N1CCCC1=O (racemic) [Example 28]
– | 800 nM | O=C1CCCCN1[C@@H](c1ccc(F)cc1)[C@H](OCCCC(F)(F)F)c1cccnc1 (racemic) [Example 118]
– | 500 nM | O=C1CCCN1[C@@H](c1cccc2cccnc12)[C@H](OCC1CC1)c1ccc(F)cc1 (racemic) [Example 3, 1-[(1R′,2S′)-2-Cyclopropylmethoxy-2-(4-fluorophenyl)-1-quinolin-8-ylethyl]-pyrrolidin-2-one]
– | 500 nM | O=C1CCCN1[C@@H](c1ccc(F)cc1)[C@H](OC1CC1)c1ccc(F)c(F)c1 (racemic) [Example 49]
– | 500 nM | CCO[C@H](c1ccc(Cl)cc1)[C@H](c1ccccc1)N1CCCC1=O (racemic) [Example 68]
– | 700 nM | C#CCO[C@H](c1ccc(F)c(F)c1)[C@H](c1ccc(F)cc1)N1CCCC1=O (racemic) [Example 38]
– | 800 nM | C=CO[C@H](c1ccccc1)[C@H](c1ccccc1)N1CCCC1=O [Example 120, 1 S,2R-1-(1,2-Diphenyl-2-vinyloxyethyl)pyrrolidin-2-one]
– | 160 nM | CCCO[C@H](c1ccccc1)[C@H](c1ccccc1)N1CCCC1=O [Example 15]

From patent publication US7825264B2, “Substituted heterocycles, their use as medicament, and pharmaceutical preparations comprising them” (sanofi-aventis, priority 2005, dated 2010)
